Some test systems named below: MDA-MB-231 breast; UO-31 renal; RPMI-8226 leukemia; BT-549 breast; SNB-19 CNS; U251 CNS; OVCAR-8 ovarian; ACHN renal; SNB-75 CNS; NCI-H522 lung.
Common to all, as to test: NCI anticancer screen, dose series, 48 h

Values joined by “and” are separate entries in the source; they are usually repeats but may differ in a detail not shown here. Equal entries are not always repeated.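 How tested: cells in 96-well plates exposed to compound for 48 hours at five concentrations. GI50 marks 50% less growth. The concentration for full growth arrest is given as TGI.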

For `COc1cccc(-c2nc(-c3ccc(NS(=O)(=O)c4ccccc4)cc3)[nH]c2-c2ccnc(Br)c2)c1`, the GI50 was 3.23 µM in the experiment on MDA-MB-231 breast; 2290 nM in the experiment on UO-31 renal; 2490 nM in the experiment with RPMI-8226 leukemia; 2720 nM in the experiment with BT-549 breast; 4.03 µM in the experiment with SNB-19 CNS; 2.73 µM with U251 CNS. Further, the GI50 was 3.33 µM in the experiment on OVCAR-8 ovarian, 2600 nM in the experiment with ACHN renal, 1.92 µM in the experiment on SNB-75 CNS and 2930 nM in the experiment with NCI-H522 lung. The TGI is 45.8 µM in the experiment on MDA-MB-231 breast; 6.89 µM with UO-31 renal; 8.31 µM in the experiment with RPMI-8226 leukemia; 9.21 µM with BT-549 breast; > 100 µM in the experiment on SNB-19 CNS; > 100 µM in the experiment on U251 CNS. Further, the TGI with OVCAR-8 ovarian, in the experiment with ACHN renal, in the experiment on SNB-75 CNS and in the experiment with NCI-H522 lung was > 100 µM throughout.
With `COC(=O)C/C(C)=C/[C@@H](O)[C@H]1O[C@@H]2CC/C(Cl)=C/C/C=C(/C)[C@H](OC(C)=O)CC(=O)O[C@@H]1C2`, the GI50 in the experiment with MDA-MB-231 breast is 4.07 µM; with UO-31 renal it was 1850 nM; in the experiment on RPMI-8226 leukemia it was 1440 nM; with BT-549 breast, 1890 nM; in the experiment with SNB-19 CNS it was 2.28 µM; with U251 CNS it was 4.55 µM. In addition, the GI50 was 4.73 µM in the experiment on OVCAR-8 ovarian, 1160 nM with ACHN renal, 1.16 µM in the experiment with SNB-75 CNS and 1290 nM in the experiment on NCI-H522 lung. The TGI in the experiment on MDA-MB-231 breast is 11.8 µM; in the experiment on UO-31 renal, > 25 µM; in the experiment with RPMI-8226 leukemia, 7.24 µM; with BT-549 breast, 7.73 µM; with SNB-19 CNS, 12.7 µM; in the experiment with U251 CNS, 13.2 µM. The TGI with OVCAR-8 ovarian is > 25 µM; with ACHN renal, 4.51 µM; in the experiment with SNB-75 CNS it was 6.14 µM; in the experiment on NCI-H522 lung it was > 25 µM.
`COc1ccc(C(=O)c2cc(OC)c(OC)c(OC)c2)cc1/C=C/C(=O)c1ccc(O)cc1`: the GI50 in the experiment on MDA-MB-231 breast was 4.02 µM; in the experiment with UO-31 renal it was 3200 nM; in the experiment on RPMI-8226 leukemia, 1560 nM; in the experiment on BT-549 breast, 2020 nM; in the experiment with SNB-19 CNS, 4.42 µM; in the experiment with U251 CNS, 4.58 µM. Besides, the GI50 in the experiment with OVCAR-8 ovarian is 4.48 µM; in the experiment with ACHN renal it was 5220 nM; with SNB-75 CNS it was 1.62 µM; in the experiment on NCI-H522 lung, 2690 nM. In addition, the TGI worked out at 24.9 µM with MDA-MB-231 breast; 16.2 µM in the experiment on UO-31 renal; 82.9 µM in the experiment with RPMI-8226 leukemia; 5.32 µM in the experiment with BT-549 breast; 19.7 µM with SNB-19 CNS; 18.3 µM in the experiment with U251 CNS. The TGI with OVCAR-8 ovarian was > 100 µM; in the experiment with ACHN renal, 21.5 µM; with SNB-75 CNS, 4.77 µM; in the experiment on NCI-H522 lung, 15.8 µM.
Take `CC1/C=C/C=C/CC/C=C/C=C/C=C/C=C/C(OC2OC(C)C(O)C(N)C2O)CC2OC(CC(O)C(O)CCC(O)CC(O)CC(O)CC(=O)OC(C)C(C)C1O)CC(O)C2C(=O)O` (stereo not given): the GI50 with MDA-MB-231 breast was 29.4 µg/mL; in the experiment with UO-31 renal, 20 µg/mL; in the experiment with RPMI-8226 leukemia it was 150 µg/mL; in the experiment with BT-549 breast it was 38.8 µg/mL; with SNB-19 CNS, 94.5 µg/mL; in the experiment with U251 CNS it was 69.1 µg/mL. The GI50 in the experiment on OVCAR-8 ovarian is 33.3 µg/mL; in the experiment with ACHN renal, 22.8 µg/mL; with SNB-75 CNS, 58.2 µg/mL; with NCI-H522 lung, 29.8 µg/mL. Besides, the TGI with MDA-MB-231 breast is 39.4 µM and 69.2 µg/mL; in the experiment on UO-31 renal, 35.8 µM and 40.6 µg/mL; with RPMI-8226 leukemia, 45.2 µM and 150 µg/mL; with BT-549 breast, 34.6 µM and 116 µg/mL; in the experiment with SNB-19 CNS it was 34 µM and 150 µg/mL; with U251 CNS, 32.4 µM and 150 µg/mL. The TGI is 47 µM and 74.6 µg/mL in the experiment with OVCAR-8 ovarian; 32.3 µM and 42.7 µg/mL in the experiment with ACHN renal; 40.6 µM and 150 µg/mL in the experiment on SNB-75 CNS; 34.3 µM and 53.7 µg/mL in the experiment on NCI-H522 lung.
For `NCCCn1c2c(c3ccccc3c1=O)C(=O)c1cc3c(cc1-2)OCO3`, the GI50 with MDA-MB-231 breast was 0.72 µM; in the experiment with UO-31 renal, 265 nM; in the experiment with RPMI-8226 leukemia it was < 21.4 nM; in the experiment with BT-549 breast, < 10 nM; in the experiment with SNB-19 CNS, 0.159 µM; in the experiment with U251 CNS it was 0.149 µM. The GI50 is 0.173 µM in the experiment on OVCAR-8 ovarian, 61 nM in the experiment with ACHN renal and 474 nM with NCI-H522 lung. Further, the TGI was 4.54 µM in the experiment on MDA-MB-231 breast; 1.99 µM in the experiment on UO-31 renal; 0.258 µM with RPMI-8226 leukemia; 1.77 µM with BT-549 breast; 1.62 µM with SNB-19 CNS; 1.52 µM in the experiment with U251 CNS. For the same molecule, the TGI in the experiment with ACHN renal was 0.295 µM; in the experiment with SNB-75 CNS, 1.72 µM; in the experiment on NCI-H522 lung, 4.79 µM.
Turning to `Cc1c2ncccc2c(C)c2c1[nH]c1ccc(O)cc12`, the GI50 with MDA-MB-231 breast was 7.26 µM; with UO-31 renal, 8040 nM; in the experiment on RPMI-8226 leukemia, 3070 nM; with SNB-19 CNS it was 19.7 µM; in the experiment with U251 CNS, 9.94 µM and 4.34 µM; with OVCAR-8 ovarian, 4.99 µM and 2.86 µM. For the same molecule, the GI50 is 3060 nM in the experiment with ACHN renal; 7.45 µM and 15.2 µM with SNB-75 CNS. The TGI in the experiment on MDA-MB-231 breast was 19.2 µM and 54.4 µM; in the experiment on UO-31 renal it was 16.7 µM and 28.4 µM; in the experiment on RPMI-8226 leukemia, 8.78 µM and 15.4 µM; in the experiment on BT-549 breast, 29.3 µM; in the experiment with SNB-19 CNS it was 20.2 µM and 84.3 µM; in the experiment with U251 CNS it was 13.9 µM and 21.6 µM. Also, the TGI in the experiment with OVCAR-8 ovarian is 18.2 µM and 32.1 µM; in the experiment with ACHN renal, 12.4 µM and 18.7 µM; in the experiment with NCI-H522 lung, 19.6 µM.
Turning to `O=P(Oc1ccccc1)(Oc1ccccc1)C(O)c1ccccc1` (stereo not given), the GI50 in the experiment on MDA-MB-231 breast is 71.3 µM; in the experiment with UO-31 renal, 29800 nM; in the experiment on RPMI-8226 leukemia, 33300 nM; in the experiment on BT-549 breast it was > 100000 nM; in the experiment with SNB-19 CNS, > 100 µM; with U251 CNS, 48.9 µM. In addition, the GI50 with OVCAR-8 ovarian is > 100 µM; with ACHN renal, > 100000 nM; in the experiment on SNB-75 CNS, 34.4 µM; in the experiment on NCI-H522 lung, 25400 nM. For the same molecule, the TGI in the experiment on MDA-MB-231 breast, with UO-31 renal, in the experiment on RPMI-8226 leukemia, with BT-549 breast, with SNB-19 CNS and in the experiment on U251 CNS was > 100 µM in each case. In addition, the TGI in the experiment with OVCAR-8 ovarian, with ACHN renal, in the experiment with SNB-75 CNS and in the experiment on NCI-H522 lung was > 100 µM throughout.

Values taken from PubChem BioAssay (NCI).
